Measurements reported in US6710060B2, “4-hydroxypiperidine derivatives having antiarrhythmic activity” (Mochida Pharmaceutical Co., Ltd., priority 1999, dated 2004).
Counter-ions that a name gives are not always drawn. Like-named read-outs stand apart in the source and are kept apart here.

Key:
[1] = system: Electrocardiogram in Rats; test: Effect on electrocardiogram in rats; type: in vivo; settings: 5 mg/kg intravenous, anesthetized rat, two minutes after administration
Protocol: [Effect on Electrocardiogram in Rats]
After anesthetizing with 1.5 g/kg (s.c.) of urethane, a rat was fixed on a warm plate at its supination. Polyethylene tubes for administering a test compound and for measuring the blood pressure were inserted into and fixed to the jugular vein and femoral artery, respectively. The blood pressure of the artery was measured using a pressure transducer. An electrode was attached to the animal, electrocardiograms were led by the standard lead II. The heart rate was measured by using a heart rate counter. The test compound was given by intravenous injection when the blood pressure and heat rate had been stabilized after the operation. […] Each parameter on the electrocardiogram was processed using an analysis software running on the personal computer to calculate the rate of change as compared with that before administration.

[2] = system: female Crj(SD)IGS rats
[3] = system: isolated cardiac muscle cells; test: Suppression activity of veratrine-induced contracture of isolated cardiac muscle; type: cell-based; settings: Cardiac muscle cell, 5 min; rat isolated cardiac muscle cells, veratrine 100 gg/mL, 5 minutes after addition, probit analysis; read-out: IC50 (concentration of the test compound when half of the cells were contracted)
Protocol: [Suppression Activity of Veratrine-Induced Contracture of Isolated Cardiac Muscle]
Rats were anesthetized with 40 mg/kg (i.p.) of pentobarbital sodium and held in supine postion, and heparin was injected through the jugular vein. […] A polyethylene tube filled with Krebs-Ringer-HEPES (KRH) solution (pH 7.4) containing 1 mM CaCl2 was inserted through the aorta in retrograde manner, and the tube was fixed. The heart was extracted simultaneously with perfusion of the KRH solution at a hydraulic pressure of 70 cm water column. After thoroughly flushing the remaining blood by spontaneous contraction of the heart, stroke of the heart was halted by perfusion of the Ca^2+ free KRH solution for 10 minutes. The perfusion solutions described above were used after oxygenation with a mixed gas containing 95% O2 and 5% CO2 and keeping at a temperature of 37° C. Then, a KRH solution containing 25 μM CaCl2, 0.06% collagenase and 0.1% albumin was perfused for 20 minutes at 37° C. until the heart was soften. The ventricles were cut into pieces in the collagenase solution at 37° C., followed by an enzyme treatment for 10 minutes while aerating the solution with the mixed gas of 95% O2/5% CO2. The cells were dispersed by pipetting, and connective tissues were removed from the dispersed cells by filtering with a stainless steel mesh. After halting the enzyme reaction by adding albumin in the filtrate, the supernatant was discarded by centrifugation. The cells were suspended in the KRH solution containing 25 μM CaCl2 and 1% albumin, and the Ca^2+ concentration was increased stepwise by sequentially adding the CaCl2 solution in the suspension to a final concentration of 0.5 mM. A pellet of the cells was obtained by centrifugation after allowing the suspension to stand for 10 minutes. The pellet of the cells was laid on a column (10 cm in height and 15 mm in diameter) filled with the KRH solution containing 1 mM CaCl2 and 2% albumin, and the column was allowed to stand for 5 to 10 minutes. The supernatant was gently removed, and the number of rod-shaped cells in the precipitated cells was counted. The cells were re-suspended in the KRH solution containing 1 mM CaCl2 and 0.1% albumin, and pipetted into each well of a 48 well multi-plate (3548, COSTER) coated with poly-L-lysine so that each well contains 0.5 mL of the cell suspension with 1×10^4 cells/well. The suspension in each well was aerated with a mixed gas of 95% O2/5% CO2 at 37° C. for 1 hour to allow the cells to adhere on the bottom of the well. […] Then, the medium was replaced with a KRH solution containing a test compound, 0.025% lactic acid and 1 mM CaCl2, followed by aerating with a mixed gas containing 95% O2/5% CO2 at 37° C. for 30 minutes. After taking a photograph under a microscope, a KRH solution containing veratrine, 0.025% lactic acid and 1 mM CaCl2 was added to each well so that the final concentration of veratrin becomes 100 gg/mL, followed by taking a photograph of morphological changes of the cells after 5 minutes passed from the addition. A change from the rod-shape cell to a spherical cell was defined as contraction by veratrine. Veratrine in this concentration can contract all the cells. The concentration of the test compound when half of the cells were contracted was defined as IC50 (μmol/L) that can be calculated by a probit analysis.

[4] = system: Ischemia-Reperfusion Induced Arrythmia Model in Rats; test: Suppression effect on ischemia-reperfusion induced arrythmia in rats; type: in vivo, rat
Protocol: [Suppression Effect on Ischemia-Reperfusion Induced Arrythmia in Rats]
The test compounds were administered to rats starved from a day before by gavage at a dosage of 10 mL/kg under an awaken condition. The rats were anesthetized with 60 mg/kg (i.p.) of sodium pentobarbital after 35 minutes passed from the administration, and were fixed on a warmed sheet in supine position. The body temperature was kept at 37° C. during the experiment, and artificial respiration was started under a condition of 15 mL/Kg and 55 strokes/minutes. […] Then, the left chest was open, and the left major coronary artery at an atrium side was sewed using a needle with a thread in order to ligate the coronary artery. After stabilizing for about 10 minutes (after 60 minutes passed from the administration), the coronary artery was ligated for 5 minutes, and re-perfused for 10 minutes thereafter. The ligation of the coronary artery was conducted by inserting a suture through a snare made of a polyethylene tube and pulling the both ends of the suture, followed by pressing the snare onto the heart. The re-perfusion was conducted by removing the snare. The aortic blood pressure was measured with a pressure transducer. An electrocardiogram was led by a standard lead II. […] After the completion of the experiments, generation of ventricular fibrillation was confirmed for each individual using an analysis software running on the personal computer, and incidence (%) of the ventricular fibrillation was determined for each administration group.

[5] = Table 2-2, 5 mg/kg by gavage, solvent group 57.1

## CCCCOc1ccc(N(C)CCC2(O)CCN(Cc3ccccc3)CC2)cc1 [Example 146, 1-benzyl-4-[2-[N-(4-n-butoxyphenyl)-N-methylamino]ethyl]piperidin-4-ol dihydrochloride]
[1]
  PQ Distance (rate of change): — (The rate of change at two minutes after administration is 15% or less as compared with that before administration.)
  QRS Width (rate of change): — (The rate of change at two minutes after administration is 15% or less as compared with that before administration.)
[2]; oral gavage once a day for 14 days, 6-week aged female rats
  daily dosage at which no fatal cases were observed: ≤ 100 mg/kg
[3]
  IC50: 1200 nM
[4]; Table 2-1, 5 mg/kg by gavage, ligation 60 min after administration, solvent group 63.6
  Incidence (%) of the ventricular fibrillation: 30.0%
[4]; Table 2-1, 10 mg/kg by gavage, solvent group 63.6
  Incidence (%) of the ventricular fibrillation: 11.1%
[4]; Table 2-1, 20 mg/kg by gavage, solvent group 63.6
  Incidence (%) of the ventricular fibrillation: 0.0%

## CCCCOc1ccc(N(C)CCC2(O)CCN(CCc3ccc(F)cc3)CC2)cc1 [Example 176, 4-[2-[N-(4-n-butoxyphenyl)-N-methylamino]ethyl]-1-[2-(4-fluorophenyl)ethyl]piperidin-4-ol dihydrochloride]
[1]
  PQ Distance (rate of change): — (The rate of change at two minutes after administration is 15% or less as compared with that before administration.)
  QRS Width (rate of change): — (The rate of change at two minutes after administration is 15% or less as compared with that before administration.)
[3]
  IC50: 900 nM

## CCCCOc1ccc(N(C)CCC2(O)CCN(CCc3ccc(F)cc3F)CC2)cc1 [Example 183, 4-[2-[N-(4-n-butoxyphenyl)-N-methylamino]ethyl]-1-[2-(2,4-difluorophenyl)ethyl]piperidin-4-ol dihydrochloride]
[3]
  IC50: 1000 nM

## CCCCOc1ccc(N(C)CCC2(OC)CCN(Cc3ccccc3)CC2)cc1 [Example 201, 1-benzyl-4-methoxy-4-[2-[N-(4-n-butoxyphenyl)-N-methylamino]ethyl]piperidine dihydrochloride]
[1]
  PQ Distance (rate of change): — (The rate of change at two minutes after administration is 15% or less as compared with that before administration.)
  QRS Width (rate of change): — (The rate of change at two minutes after administration is 15% or less as compared with that before administration.)

## CCCCOc1ccc(N(C)CC2(O)CCN(Cc3ccccc3)CC2)cc1 [Example 210, 1-benzyl-4-[N-(4-n-butoxyphenyl)-N-methylamino]-methylpiperidin-4-ol monomaleate]
[3]
  IC50: 900 nM

## CC(C)Oc1ccc(N(C)CCC2(O)CCN(Cc3ccc(Br)cc3)CC2)cc1 [Example 220, 1-(4-bromophenylmethyl)-4-[2-[N-methyl-N-(4-isopropoxyphenyl)amino]ethyl]piperidin-4-ol dihydrochloride]
[3]
  IC50: 700 nM

## CC(C)Oc1ccc(N(C)CCC2(O)CCN(Cc3ccc(C(F)(F)F)cc3)CC2)cc1 [Example 221, 4-[2-[N-methyl-N-(4-isopropoxyphenyl)amino]ethyl]-1-[4-(trifluoromethyl)phenylmethyl]piperidin-4-ol dihydrochloride]
[3]
  IC50: 300 nM

## CC(C)Oc1ccc(N(C)CCC2(O)CCN(Cc3ccc(C#N)cc3)CC2)cc1 [Example 226, 1-(4-cyanophenylmethyl)-4-[2-[N-methyl-N-(4-isopropoxyphenyl)amino]ethyl]piperidin-4-ol dihydrochloride]
[1]
  PQ Distance (rate of change): — (The rate of change at two minutes after administration is 15% or less as compared with that before administration.)
  QRS Width (rate of change): — (The rate of change at two minutes after administration is 15% or less as compared with that before administration.)

## COC(=O)c1ccc(CN2CCC(O)(CCN(C)c3ccc(OC(C)C)cc3)CC2)cc1 [Example 233, 1-[4-(methoxycarbonyl)phenylmethyl]-4-[2-[N-methyl-N-(4-isopropoxyphenyl)amino]ethylipiperidin-4-oldihydrochloride]
[1]
  PQ Distance (rate of change): — (The rate of change at two minutes after administration is 15% or less as compared with that before administration.)
  QRS Width (rate of change): — (The rate of change at two minutes after administration is 15% or less as compared with that before administration.)
[2]; female, Crj(SD)IGS, rat, in vivo, po, 14 days
  daily dosage at which no fatal cases were observed: ≤ 50 mg/kg
[4]; [5]
  Incidence (%) of the ventricular fibrillation: 28.6%

## CC(C)Oc1ccc(N(C)CCC2(O)CCN(Cc3ccc(OC(F)(F)F)cc3)CC2)cc1 [Example 236, 4-[2-[N-methyl-N-(4-isopropoxyphenyl)amino]ethyl]-1-(4-trifluoromethoxyphenylmethyl)piperidin-4-ol dihydrochloride]
[3]
  IC50: 300 nM

## CC(C)Oc1ccc(N(C)CCC2(O)CCN(Cc3ccc(Br)cc3F)CC2)cc1 [Example 240, 1-(4-bromo-2-fluorophenylmethyl)-4-[2-[N-methyl-N-(4-isopropoxyphenyl)amino]ethyl]piperidin-4-ol dihydrochloride]
[1]
  PQ Distance (rate of change): — (The rate of change at two minutes after administration is 15% or less as compared with that before administration.)
  QRS Width (rate of change): — (The rate of change at two minutes after administration is 15% or less as compared with that before administration.)
[3]
  IC50: 700 nM
[4]; [5]
  Incidence (%) of the ventricular fibrillation: 0.0%

## CC(C)Oc1ccc(N(C)CCC2(O)CCN(Cc3cccs3)CC2)cc1 [Example 254, 4-[2-[N-methyl-N-(4-isopropoxyphenyl)amino]ethyl]-1(2-thienylmethyl)piperidin-4-ol dihydrochloride]
[1]
  PQ Distance (rate of change): — (The rate of change at two minutes after administration is 15% or less as compared with that before administration.)
  QRS Width (rate of change): — (The rate of change at two minutes after administration is 15% or less as compared with that before administration.)
